The values below come from PubChem BioAssay (NCI).

Among the test systems are 786-0 renal; HCT-116 colon; HOP-62 NSCLC; HOP-92 NSCLC; KM12 colon; OVCAR-3 ovarian; SK-MEL-2 melanoma; SK-MEL-28 melanoma.
Holding throughout (assay): inhibition of tumour cell growth, NCI panel, 48 h

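1) Cells in 96-well plates. 2) Compound, 48 h, 5 concentrations. 3) Linear interpolation between surrounding doses. 4) Unreached endpoint = highest concentration. GI50 marks 50% less growth. TGI is the concentration that stops growth completely.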

In the case of `CCN(CCCl)CCCCCNc1c2ccccc2nc2ccc(OC)cc12`, the TGI came out at 1.63 µM in the assay with 786-0 renal; 1.43 µM in the assay on HCT-116 colon; 8.38 µM in the assay on HOP-62 NSCLC; 3.21 µM with HOP-92 NSCLC; 1.81 µM with KM12 colon; 7.28 µM in the assay on OVCAR-3 ovarian. Moreover, the TGI in the assay on SK-MEL-2 melanoma is 2.7 µM; in the assay on SK-MEL-28 melanoma, 12.1 µM.

`NCCOCn1cc(Cc2cccc(OCc3ccccc3)c2)c(=O)[nH]c1=O`: the TGI in the assay with 786-0 renal, with HCT-116 colon, in the assay on HOP-92 NSCLC, in the assay on KM12 colon, in the assay on OVCAR-3 ovarian and in the assay on SK-MEL-2 melanoma was above 100 µM each time. The compound further came in with a TGI in the assay on SK-MEL-28 melanoma above 100 µM.

In the case of `CCCN(CCC)CCc1cc(C(C)=O)n(S(=O)(=O)c2ccc(C)cc2)c1`, the TGI in the assay with 786-0 renal, with HCT-116 colon, in the assay on HOP-62 NSCLC, in the assay on HOP-92 NSCLC, in the assay on KM12 colon and in the assay with OVCAR-3 ovarian was above 100 µM each time. The TGI with SK-MEL-2 melanoma and in the assay with SK-MEL-28 melanoma was above 100 µM throughout.

Turning to `CC(C)=O.O=C([O-])C(F)(F)F.O=C([O-])C(F)(F)F.O=C([O-])C(F)(F)F.O=C([O-])C(F)(F)F.[Rh+2].[Rh+2]`, the GI50 was 71.5 µM with 786-0 renal; 54 µM in the assay with HCT-116 colon; above 100 µM in the assay on HOP-62 NSCLC; above 100 µM with KM12 colon; above 100 µM with OVCAR-3 ovarian; 94.3 µM with SK-MEL-28 melanoma. The TGI in the assay with 786-0 renal, in the assay on HCT-116 colon, in the assay with HOP-62 NSCLC, in the assay on KM12 colon, in the assay on OVCAR-3 ovarian and with SK-MEL-28 melanoma was above 100 µM in each case.

As for `S=c1nc(C(c2ccccc2)c2ccccc2)[nH][nH]1`, the TGI with 786-0 renal, in the assay on HCT-116 colon, in the assay with HOP-62 NSCLC, in the assay with KM12 colon, in the assay on OVCAR-3 ovarian and with SK-MEL-2 melanoma was above 100 µM in each case. Besides, the TGI with SK-MEL-28 melanoma is above 100 µM.

For the compound `O=c1/c(=C/c2c(O)ccc3ccccc23)sc2nc3ccccc3n12`, the TGI with 786-0 renal, in the assay on HCT-116 colon, in the assay with HOP-62 NSCLC, in the assay with HOP-92 NSCLC, in the assay with KM12 colon and in the assay on OVCAR-3 ovarian was above 100 µM in each case. Besides, the TGI in the assay with SK-MEL-2 melanoma and in the assay with SK-MEL-28 melanoma was above 100 µM in each case.

As to `O=C1C=CC(=O)C2C1Cc1ccccc1C2c1ccccc1` (stereo not given), the TGI in the assay with 786-0 renal was above 100 µM; with HCT-116 colon, above 100 µM; with HOP-62 NSCLC it was above 100 µM; with HOP-92 NSCLC it was 85 µM; in the assay on KM12 colon, above 100 µM; with OVCAR-3 ovarian, 88.3 µM. Moreover, the TGI in the assay with SK-MEL-2 melanoma was 90.1 µM; with SK-MEL-28 melanoma, above 100 µM.

Consider `COC1=CC(=O)C(Br)=CC1=O`, for which the TGI in the assay on 786-0 renal was 32.9 µM; with HOP-62 NSCLC, above 100 µM; with HOP-92 NSCLC, 29.8 µM; with SK-MEL-2 melanoma it was 45.7 µM; with SK-MEL-28 melanoma, 34 µM.

Take `Cn1cnc([N+](=O)[O-])c1Sc1nnnn1C`: the TGI in the assay on 786-0 renal is 32.1 µM; with HCT-116 colon it was 28 µM; with HOP-62 NSCLC, above 100 µM; with HOP-92 NSCLC, 25.2 µM; in the assay on KM12 colon, above 100 µM; with OVCAR-3 ovarian, 29.4 µM. Also, the TGI in the assay with SK-MEL-2 melanoma is 37.3 µM; in the assay on SK-MEL-28 melanoma, 27.3 µM.

For the compound `CCC[CH2][Sn]([CH2]CCC)([CH2]CCC)[O]C(=O)C(OC(C)=O)c1ccccc1` (stereo not given), the GI50 in the assay with 786-0 renal is 0.157 µM; in the assay on HCT-116 colon, 0.136 µM; with HOP-62 NSCLC, 0.149 µM; in the assay with HOP-92 NSCLC it was 0.0409 µM; in the assay on KM12 colon, 0.109 µM; in the assay on OVCAR-3 ovarian it was 0.137 µM. The GI50 with SK-MEL-28 melanoma is 0.142 µM. For the same compound, the TGI with 786-0 renal is 0.295 µM; in the assay on HCT-116 colon, 0.276 µM; in the assay on HOP-62 NSCLC it was 0.287 µM; with HOP-92 NSCLC, 0.222 µM; with KM12 colon it was 0.23 µM; in the assay with OVCAR-3 ovarian it was 0.274 µM. In the assay on SK-MEL-28 melanoma, this compound registered a TGI of 0.274 µM.

As to `O=c1nc(NC(c2ccccc2)(c2ccccc2)c2ccccc2)ccn1CCCl`, the TGI in the assay with 786-0 renal is 32 µM; in the assay on HCT-116 colon, 37.1 µM; in the assay with HOP-62 NSCLC, 40.9 µM; with HOP-92 NSCLC, 27.6 µM; in the assay with KM12 colon, 31.2 µM; in the assay with OVCAR-3 ovarian, 27.6 µM. Moreover, the TGI with SK-MEL-2 melanoma came to 29.9 µM; with SK-MEL-28 melanoma, 28.6 µM.

Take `C#CCN(N=O)C(=O)NCCCCC(NC(=O)OCc1ccccc1)C(=O)OCc1ccccc1` (stereo not given): the TGI with 786-0 renal is above 100 µM; in the assay with HCT-116 colon it was above 100 µM; with HOP-62 NSCLC, above 100 µM; in the assay on HOP-92 NSCLC it was 42.1 µM; in the assay on KM12 colon, above 100 µM; with OVCAR-3 ovarian it was 53.9 µM. The TGI with SK-MEL-2 melanoma and with SK-MEL-28 melanoma was above 100 µM in each case.

With `O=S(=O)(c1ccccc1)c1nccs1`, the TGI with 786-0 renal, in the assay on HCT-116 colon, with HOP-62 NSCLC, in the assay on KM12 colon, in the assay on OVCAR-3 ovarian and with SK-MEL-2 melanoma was above 100 µM each time. Further, the TGI in the assay with SK-MEL-28 melanoma is above 100 µM.

`O=C1OC(c2ccccc2)(c2ccccc2)c2ccc3ccc(F)cc3c21`: the TGI with 786-0 renal, in the assay with HCT-116 colon, in the assay with HOP-62 NSCLC, with HOP-92 NSCLC, in the assay on KM12 colon and in the assay with OVCAR-3 ovarian was above 100 µM in each case. Also, the TGI with SK-MEL-2 melanoma and with SK-MEL-28 melanoma was above 100 µM each time.

On to `Cc1ccc(NC(=O)C(=O)C(C(=O)c2ccc3ccccc3c2)C2OC(=O)c3ccccc32)c(C)c1` (stereo not given), for which the TGI in the assay with 786-0 renal amounted to 19.7 µM; in the assay on HCT-116 colon it was 20.1 µM; in the assay on HOP-62 NSCLC, 22.4 µM; in the assay on HOP-92 NSCLC it was 27.8 µM; in the assay with KM12 colon, 45.5 µM; in the assay on OVCAR-3 ovarian, 31.5 µM. Further, the TGI worked out at 26.8 µM in the assay on SK-MEL-2 melanoma and 31.2 µM in the assay on SK-MEL-28 melanoma.

As for `CCO/C(CCn1[nH]c(=O)c(Cl)c(Cl)c1=O)=N\NC(=O)C(=O)NN`, the TGI in the assay with 786-0 renal, with HOP-62 NSCLC, in the assay on KM12 colon, in the assay on OVCAR-3 ovarian, with SK-MEL-2 melanoma and with SK-MEL-28 melanoma was above 100 µM each time.
